Reference: article PMC5031696, “Synthesis, Biodistribution and In vitro Evaluation of Brain Permeable High Affinity Type 2 Cannabinoid Receptor Agonists [^11C]MA2 and [^18F]MA3” (Frontiers in Neuroscience, 2016)
Read-outs that look alike come from different tables or passages of the source.

Assays:
hCB1 [1] = biological target: T1, hCB1 (Homo sapiens, UniProt P21554); test: radioligand binding assay with [^3H]CP55940, hCB1; settings: for Ki ratio hCB1/hCB2: selectivity
T1 construct: host or cells: CHO-K1 beta-arrestin cells
T1 sequence (P21554 whole entry): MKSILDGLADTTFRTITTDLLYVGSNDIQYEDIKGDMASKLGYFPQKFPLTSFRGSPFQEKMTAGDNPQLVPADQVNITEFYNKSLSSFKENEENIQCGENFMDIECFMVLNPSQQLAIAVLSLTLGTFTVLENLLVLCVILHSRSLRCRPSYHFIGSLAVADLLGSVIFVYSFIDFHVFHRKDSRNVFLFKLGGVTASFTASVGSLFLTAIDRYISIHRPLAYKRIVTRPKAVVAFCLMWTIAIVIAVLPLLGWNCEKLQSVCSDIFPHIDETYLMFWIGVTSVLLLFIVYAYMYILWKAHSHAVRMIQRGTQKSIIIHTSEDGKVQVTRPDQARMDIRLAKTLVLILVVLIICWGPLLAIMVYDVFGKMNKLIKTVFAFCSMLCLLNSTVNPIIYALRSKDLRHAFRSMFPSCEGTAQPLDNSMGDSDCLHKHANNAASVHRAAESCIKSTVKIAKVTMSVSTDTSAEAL
Method: (§1) CHO-K1 beta-arrestin cells (DiscoveRx, Fremont, CA) expressing hCB2, mouse CB2 (mCB2), and human CB1 (hCB1) were cultured in F-12 Nutrient Mixture (HAM) supplemented with 10% fetal bovine serum (FBS), 300 μg/mL hygromycin and 800 μg/mL geneticin (G418). Cells were incubated in a humidified atmosphere at 37°C with 5% CO2.
(§2) Stably transfected cells were treated for 24 h with 5 mM butyrate in growth medium before harvesting, followed by homogenization in 15 mmol/L Hepes, 0.3 mmol/L EDTA, 1 mmol/L EGTA, 2 mmol/L MgCl2, complete EDTA-free protease inhibitor (Roche Applied Science, Rotkreuz, Switzerland), pH 7.4 using a glass potter and centrifugation at 47,800 g at 4°C for 30 min. The pellet was then rehomogenized twice in the same buffer and centrifuged (47,800 g, 4°C, 30 min). The final pellet was then resuspended in 75 mmol/L Tris, 0.3 mmol/L EDTA, 1 mmol/L EGTA, 12.5 mmol/L MgCl2, 250 mmol/L sucrose, pH 7.4 at a protein concentration of 1 to 3 mg/mL, aliquoted, frozen on dry ice and stored at −80°C. Saturation binding was performed with 0.05 to 2.6 nM [^3H]CP55940 (Perkin Elmer) and 1.0 μg of membrane protein. CP55940 (10 μM) was used to define non-specific binding. More than 95% of the total binding signal was specific. Assay buffer consisted of 50 mmol/L Tris-HCl, 5 mmol/L MgCl2, 2.5 mmol/L EGTA, and 0.1% fatty acid-free BSA, pH 7.4. Assays were initiated by addition of membranes in a final volume of 250 μL/well. Mixtures were incubated for 3 h at room temperature and then vacuum filtered and rinsed with wash buffer (50 mmol/L Tris-HCl, 5 mmol/L MgCl2, 2.5 mmol/L EGTA, and 0.5% fatty acid-free BSA, pH 7.4) on a Filtermate cell harvester through Packard GF/B filters presoaked in 0.3% polyethylenimine.
(§3) For competition binding, membrane preparations were incubated with 0.3 nM [^3H]CP55940 in the presence or absence of increasing concentrations of ligands for 60 min at 30°C in a final volume of 0.2 mL of 50 mmol/L Tris-HCl, 5 mmol/L MgCl2, 2.5 mmol/L EGTA, 0.1% fatty acid-free BSA, and 1% DMSO, pH 7.4, buffer, gently shaking. Non-specific binding was defined with 10 μM CP55940. All binding reactions were terminated by vacuum filtration onto 0.5% polyethylenimine presoaked GF/B filter plates (Packard) followed by seven brief washes with 2 mL of ice-cold binding buffer containing 0.5% fatty acid-free BSA. Plates were dried at 50°C for 1 h and liquid scintillation counting was used to determine bound radiolabel. IC50 values and Hill slopes were determined by a four parameter logistic model using ActivityBase (ID Business Solution, Guilford, UK). pKi values were determined by the generalized Cheng-Prusoff equation (Yung-Chi and Prusoff, [1973]).

mCB2 [2] = biological target: T2, mCB2 (Mus musculus, UniProt P47936); test: radioligand binding assay with [^3H]CP55940, mCB2
T2 construct: host or cells: CHO-K1 beta-arrestin cells
T2 sequence (P47936 whole entry): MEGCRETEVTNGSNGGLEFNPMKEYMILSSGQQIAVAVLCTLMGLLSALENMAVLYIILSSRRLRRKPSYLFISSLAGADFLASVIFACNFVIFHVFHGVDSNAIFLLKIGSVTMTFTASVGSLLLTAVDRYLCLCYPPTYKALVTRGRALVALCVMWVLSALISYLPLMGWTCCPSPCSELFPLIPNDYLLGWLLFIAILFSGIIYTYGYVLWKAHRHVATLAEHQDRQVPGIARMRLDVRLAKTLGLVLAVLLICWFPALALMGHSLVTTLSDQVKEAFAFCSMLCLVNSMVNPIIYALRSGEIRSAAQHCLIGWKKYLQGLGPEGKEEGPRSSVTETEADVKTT
Method: as §1, §2, §3

hCB2 [3] = biological target: T3, hCB2 (Homo sapiens, UniProt P34972); test: functional cAMP assay, hCB2; format: cell-based; settings: for functional behaviour in cAMP assay: hCB2
T3 construct: host or cells: CHO-K1 beta-arrestin cells
T3 sequence (P34972 whole entry): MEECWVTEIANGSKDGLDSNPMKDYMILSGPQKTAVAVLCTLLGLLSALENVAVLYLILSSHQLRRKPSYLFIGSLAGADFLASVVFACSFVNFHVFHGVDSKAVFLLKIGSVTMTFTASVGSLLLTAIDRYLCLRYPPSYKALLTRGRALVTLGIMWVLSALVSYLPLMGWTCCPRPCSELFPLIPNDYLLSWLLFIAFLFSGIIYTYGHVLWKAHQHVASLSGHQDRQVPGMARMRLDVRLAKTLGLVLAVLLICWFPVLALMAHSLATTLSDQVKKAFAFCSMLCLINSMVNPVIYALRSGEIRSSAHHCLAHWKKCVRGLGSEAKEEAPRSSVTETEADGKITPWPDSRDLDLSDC
Method: as §1
(§4) cAMP was measured using cAMP-Nano-TRF detection kit (Roche Diagnostics, Penzberg, Germany). Cells were seeded 17–24 h prior to the experiment 3 × 10^4 cells per well in a black 96-well plate with flat clear bottom (Corning, Wiesbaden, Germany) in growth medium and incubated in 5% CO2 at 37°C in a humidified incubator. The growth medium was exchanged with Krebs Ringer bicarbonate buffer with 1 mmol/L 3-isobutyl-1-methylxanthine (IBMX), 0.1% fatty acid-free bovine serum albumin (BSA) and incubated at 30°C for 60 min. Agonist was added to a final assay volume of 100 μL and the mixture was incubated for 30 min at 30°C. The assay was stopped by the addition of 50 μL 3x lysis reagent and shaken for 2 h at room temperature. The time-resolved energy transfer was measured using an LF502 Nanoscan FLT (IOM, Berlin, Germany), equipped with a laser as excitation source. cAMP content was determined from the function of a standard curve spanning from 10 to 0.13 nmol/L cAMP.

hCB2 [4] = biological target: T3, hCB2; test: radioligand binding assay with [^3H]CP55940, hCB2
Method: as §1, §2, §3

mCB2 [5] = biological target: T2, mCB2; test: functional cAMP assay, mCB2; format: cell-based
Method: as §1, §4

hCB1 [6] = biological target: T1, hCB1; test: functional cAMP assay, hCB1 versus hCB2; format: cell-based; settings: cAMP assays
Method: as §1, §4

CB2 = test system: CB2; parameters: method as in Evens et al., 2011; settings: ref Evens et al., 2011; cited from earlier work

## FCCOc1ccc2ncc(NCCCc3nc(-c4ccc(F)cc4Cl)no3)cc2c1 [MA3, 6-(2-Fluoroethoxy)-N-(3-(3-(2-chloro-4-fluorophenyl)-1,2,4-oxadiazol-5-yl)propyl)quinolin-3-amine]
hCB1 [1]; competition with [^3H]CP55940, read-out: hCB1 Ki
  Ki: 102 nM
hCB1 [1]
  Ki ratio hCB1/hCB2: 127
mCB2 [2]; competition with [^3H]CP55940, read-out: mCB2 Ki
  Ki: 2.6 nM
hCB2 [3]; CHO-K1 cells expressing hCB2
  hCB2 cAMP % eff (efficacy): 102%
hCB2 [3]; CHO-K1 cells expressing hCB2, read-out: hCB2 cAMP EC50
  EC50: 0.13 nM
hCB2 [3]
  functional behaviour in cAMP assay: agonists
hCB2 [4]; Ki comparison
  times higher hCB2 affinity compared to 12: about 4
  times higher hCB2 affinity compared to MA2: about 100
  times higher hCB2 affinity compared to NE40: 5
hCB2 [4]; competition with [^3H]CP55940, read-out: hCB2 Ki
  Ki: 0.8 nM
mCB2 [5]; CHO-K1 cells expressing mCB2
  mCB2 cAMP % eff (efficacy): 101%
mCB2 [5]; CHO-K1 cells expressing mCB2, read-out: mCB2 cAMP EC50
  EC50: 0.09 nM
hCB1 [6]
  EC50 ratio hCB1/hCB2: 563

## Cc1c(CCN2CCOCC2)c2cc(O[11CH3])ccc2n1C(=O)c1cccc(Cl)c1Cl [[^11C]GW405833]
CB2
  binding affinity for CB2: 35 nM

## COc1ccc2ncc(NCCCc3nc(-c4ccc(F)cc4Cl)no3)cc2c1 [MA2, N-(3-(3-(2-chloro-4-fluorophenyl)-1,2,4-oxadiazol-5-yl)propyl)-6-methoxyquinolin-3-amine]
hCB1 [1]
  Ki: 1610 nM
  Ki ratio hCB1/hCB2: 19
mCB2 [2]
  Ki: 241 nM
hCB2 [3]
  EC50: 3 nM
  functional behaviour in cAMP assay: agonists
hCB2 [3]; CHO-K1 cells expressing hCB2
  hCB2 cAMP % eff (efficacy): 101%
hCB2 [4]
  Ki: 87 nM
mCB2 [5]
  EC50: 2 nM
mCB2 [5]; CHO-K1 cells expressing mCB2
  mCB2 cAMP % eff (efficacy): 100%
hCB1 [6]
  EC50 ratio hCB1/hCB2: 430
